{"source": "paper doi:10.1101/2020.05.05.079848v2", "about": "(biorxiv, 2020)", "key": {"[1]": {"target": "SARS-CoV-2 M^pro-N (N-terminal domain with the catalytic core) (Severe acute respiratory syndrome coronavirus 2, UniProt P0DTD1)", "assay_type": "binding", "conditions": "catalytic pocket, probably more than one site"}, "[2]": {"target": "SARS-CoV-2 M^pro (main protease, 3CL^pro), full-length (Severe acute respiratory syndrome coronavirus 2, UniProt P0DTD1)", "assay": "fluorescent peptide cleavage assay, two doses", "assay_type": "biochemical", "conditions": "unreliable; estimated from two doses; limited by low aqueous solubility"}}, "data": [{"molecule": "O=C(O)c1cccnc1", "note": "[niacin]", "values": [{"measurement": "1H-15N HSQC chemical shift perturbation", "setting": "[1]", "result": "niacin perturbs H41, G143, N51, and V186"}]}, {"molecule": "CSc1nc2cc(Cl)c(Oc3cccc(Cl)c3Cl)cc2[nH]1", "note": "[triclabendazole]", "values": [{"measurement": "IC50", "setting": "[2]", "result": "~ 70 μM"}]}]}
